Experimental data as given in patent US20080280890A1, “HYDROXYLAMINE COMPOUNDS AND METHODS OF THEIR USE” (priority 2007, published 2008).
Several values for one entry are separate records, joined by “and”; a condition that tells them apart may be missing. Equal entries are not always repeated. Where two headings read alike, the source gives them in different places. Each block holds one compound with its values, some of them ahead of it.

Columns and labels:
[1] = test system: lipid peroxidation; test: Lipid peroxidation inhibition (method of Ohkawa); format: biochemical; conditions: for Lipid Peroxidation % Inhibition: 10 uM
[2] = test system: Angiogenesis in CAM model; test: Neovascularization on the CAM (chick chorioallantoic membrane model of angiogenesis); format: in vivo, chicken; conditions: for Percent inhibition of angiogenesis in CAM model at 30 ug: unit assumed; for Percent inhibition of angiogenesis in CAM model at 30 ug / CAM data % Inhibition: 30 ug
Method in brief: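 Chick CAM of 10-day embryos given filter disks pretreated with cortisone acetate and saturated with bFGF (1 μg/ml) or other pro-angiogenic factors. After 24-48 hr, 10-25 ul test agent was injected intravenously or applied topically. After 3 days at 37° C, vessel branch points under each disk were counted at 50× (8 CAMs/group) and converted to % inhibition relative to positive and negative controls.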

[3] = test system: Human neuroblastoma SKN-SH cells, resistant to doxorubicin; test: Chemoresistance: cancer cell viability (MTT) in presence or absence of doxorubicin; format: cell-based; conditions: for Mean OD (×10^−3), cancer cell viability: compound 50 ug/mL, MTT
Method in brief: (§1)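 Doxorubicin-resistant SKN-SH neuroblastoma cells, selected by stepwise exposure to 10^−9–10^−6 M doxorubicin over 3 months, in DMEM/10% FBS at 37 °C. Treated with doxorubicin alone or with hydroxylamine for 72 h (96 h in one variant). MTT read at 570 nm, survival relative to untreated cells.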

[4] = test system: TNF-alpha; test: LPS induced TNF-alpha inhibition (whole blood / THP-1 cells, ELISA); format: cell-based, human
Procedure: Following incubation with LPS, PBS was added (800 uL) and samples were spun for 10 minutes at 1500 g. […] TNFα protein concentrations were measured using R&D Systems high sensitivity ELISA kit.
The lipid peroxidation assay method of Ohkawa, H.; Ohishi, N.; Yaki, K. Anal. Biochem. 1979, 95, 351 was used to evaluate TNF α. […] Cells were induced with 25 ng/mL LPS for another 3 hrs. Cells were collected and spun at 1500 g for 10 minutes. Supernatant was collected and analyzed for TNFα.
OT-551 was used in both native form and in the form of nanoparticles. […] Other nitrogenous heterocyclic species of the invention are expected to show similar improvement in efficacy when disposed in nanoparticulate form.

[5] = test system: Human neuroblastoma SKN-SH cells; test: Chemoresistance: cancer cell viability (MTT) in presence or absence of doxorubicin; format: cell-based; conditions: compound alone; P<0.001
Method in brief: as §1

[6] = test system: bFGF (FGF2) stimulated angiogenesis in CAM model; test: Angiogenesis in the CAM model using bFGF stimulus; format: in vivo, chicken; conditions: FGF2 (1 ug) + 30 ug injected
Procedure: The number of vessel branch points contained in a circular region equal to the area of a filter disk was counted for each section. Percent inhibition data are expressed as the quotient of the experimental value minus the negative control value divided by the difference between the positive control value and the negative control value. One image was counted in each CAM preparation, and findings from eight CAM preparations were analyzed for each treatment condition. In addition, each experiment was performed three times. The resulting angiogenesis index is the mean ± SEM (Standard Error of Measurement) of new branch points in each set of treatment. Statistical analysis of blood vessel branching patterns are performed by 1-way analysis of variance (ANOVA) comparing experimental with corresponding control groups. Statistical significance differences are assessed at P value of <0.05.
Assessment of Angiogenesis in the CAM Model Using bFGF Stimulus.
The CAM model protocol was modified to include stimulus with bFGF. The effect of injected OT 551 was assayed.

[7] = Ocular permeability and retinal levels after topical administration; format: in vivo

melting point: 184.6 °C (dec.)
Compound: CC1(C)COCC(C)(C)N1O.Cl [Compound 20, 3,3,5,5-1-hydroxy-tetramethylmorpholine]
Lipid Peroxidation % Inhibition [1]: 90.2% | Percent inhibition of angiogenesis in CAM model at 30 ug [2]: 78.6% | Mean OD (×10^−3), cancer cell viability ([3]; Dox. 10^−6 M present (+)): 107.5 ×10^−3 | Mean OD (×10^−3), cancer cell viability ([3]; Dox. absent (−)): 515.50 ×10^−3

Compound: 1-hydroxyl-4-(4-(2,2,6,6-tetramethylpiperidin-1-hydroxyl-4-yloxy)-1,2,5-thiadiazol-3-yloxy)-2,2,6,6-tetramethylpiperidine [Compound 14]
Mean Percent Inhibition of TNF-alpha using 5 ng/mL LPS ([4]; compound 10 uM, 5 ng/mL LPS): 63 ± 1% | IC50 ([4]; read-out: TNFalpha IC50): 11.4 µM | % Lipid Peroxidation inhibition (at 1 uM) [1]: 88.6% | Lipid Peroxidation % Inhibition [1]: 95.2% | CAM data % Inhibition [2]: 95.2% | Percent inhibition of angiogenesis in CAM model at 30 ug [2]: 75.1%

IC50 ([4]; Homo sapiens, THP-1, read-out: TNFalpha IC50): ≥ 100 µM
Compound: Cc1nsnc1OCC1=CC(C)(C)N(O)C1(C)C [Compound 47, 3-((1-hydroxy-2,5-dihydro-2,2,5,5-tetramethyl-1H-pyrrol-3-yl)methoxy)-4-methyl-1,2,5-thiadiazole]
% Lipid Peroxidation inhibition (at 1 uM) [1]: 60.3% | Mean OD (×10^−3), cancer cell viability ([3]; Dox. 10^−6 M present (+)): 261.00 ×10^−3 | Mean OD (×10^−3), cancer cell viability ([3]; Dox. absent (−)): 1168.33 ×10^−3

Compound: CC1(C)C=C(C(N)=O)C(C)(C)N1O [Compound 23, 2,5-dihydro-2,2,5,5-tetramethyl-1H-pyrrole-3-carboxamide-1-hydroxy]
IC50 ([4]; read-out: TNFalpha IC50): 87.4 µM | Percent inhibition of angiogenesis in CAM model at 30 ug [2]: 48.8% | Mean OD (×10^−3), cancer cell viability ([3]; Dox. 10^−6 M present (+)): 416.25 ×10^−3 | Mean OD (×10^−3), cancer cell viability ([3]; Dox. absent (−)): 1432.50 ×10^−3

melting point: 180.5 °C (dec.)
Compound: CC(=O)NC1CC(C)(C)N(O)C(C)(C)C1.Cl [Compound 2, 1-hydroxy-4-acetamido-2,2,6,6-tetramethylpiperidine]
Lipid Peroxidation % Inhibition [1]: 81.0% | Percent inhibition of angiogenesis in CAM model at 30 ug [2]: 76% | Mean OD (×10^−3), cancer cell viability ([3]; Dox. 10^−6 M present (+)): 249.25 ×10^−3 | Mean OD (×10^−3), cancer cell viability ([3]; Dox. absent (−)): 496.33 ×10^−3

Compound: CC1(C)CC(Oc2nsnc2N2CCOCC2)CC(C)(C)N1O.Cl [Compound 4, 4-(4-(2,2,6,6-tetramethylpiperidin-1-hydroxyl-4-yloxy)-1,2,5-thiazol-3-yl)morpholine]
% Lipid Peroxidation inhibition (at 1 uM) [1]: 87.0% | Lipid Peroxidation % Inhibition [1]: 91.4% | Percent inhibition of angiogenesis in CAM model at 30 ug [2]: 92.8% | reversal of drug resistance ([3]; combined with doxorubicin, osteosarcoma, breast cancer, and neuroblastoma): strong ability to reverse drug resistance | Mean OD (×10^−3), cancer cell viability ([3]; Dox. 10^−6 M present (+)): 88.00 ×10^−3 | Mean OD (×10^−3), cancer cell viability ([3]; Dox. absent (−)): 468.50 ×10^−3 | killing of doxorubicin-resistant cells ([3]; compound alone, P<0.001): enhanced the killing | killing of doxorubicin-sensitive cells [5]: enhanced the killing

Compound: CC1(C)CC(C(N)=O)C(C)(C)N1O (stereo not shown) [Compound 24, 1-hydroxy-2,2,5,5-tetramethylpyrrolidine-3-carboxamide]
% Lipid Peroxidation inhibition (at 1 uM) [1]: 37.0% | Percent inhibition of angiogenesis in CAM model at 30 ug [2]: 65.8% | Mean OD (×10^−3), cancer cell viability ([3]; Dox. 10^−6 M present (+)): 362.00 ×10^−3 | Mean OD (×10^−3), cancer cell viability ([3]; Dox. absent (−)): 1166.50 ×10^−3

Compound: CC1(C)CC(Oc2nsnc2C#N)CC(C)(C)N1O [Compound 45]
% Lipid Peroxidation inhibition (at 1 uM) [1]: 91.5% | Percent inhibition of angiogenesis in CAM model at 30 ug [2]: 50% | Mean OD (×10^−3), cancer cell viability ([3]; Dox. 10^−6 M present (+)): 276.50 ×10^−3 | Mean OD (×10^−3), cancer cell viability ([3]; Dox. absent (−)): 1063.33 ×10^−3

melting point: 158.1 °C (dec.)
Compound: CC1(C)CC(NC(=O)N2CCOCC2)CC(C)(C)N1O.Cl [Compound 11, N-(2,2,6,6-tetramethylpiperidin-1-hydroxyl-4-yl)morpholine-4-carboxamide]
Lipid Peroxidation % Inhibition [1]: 82.7% | Percent inhibition of angiogenesis in CAM model at 30 ug [2]: 71% | Mean OD (×10^−3), cancer cell viability ([3]; Dox. 10^−6 M present (+)): 267.25 ×10^−3 | Mean OD (×10^−3), cancer cell viability ([3]; Dox. absent (−)): 470.25 ×10^−3

Compound: COC1CC(C)(C)N(O)C(C)(C)C1.Cl [Compound 1, 1-hydroxy-4-methoxy-2,2,6,6-tetramethylpiperidine]
% Lipid Peroxidation inhibition (at 1 uM) [1]: 74.1% | Lipid Peroxidation % Inhibition [1]: 90.8% | Percent inhibition of angiogenesis in CAM model at 30 ug [2]: 89.9% | Mean OD (×10^−3), cancer cell viability ([3]; Dox. 10^−6 M present (+)): 246.50 ×10^−3 | Mean OD (×10^−3), cancer cell viability ([3]; Dox. absent (−)): 524.75 ×10^−3

Compound: CC1(C)CC(O)CC(C)(C)N1O [TEMPOL-H, 2,2,6,6-tetramethylpiperidine-1,4-diol, reference compound]
inhibition at 10 µM ([4]; Homo sapiens, THP-1, compound 10 uM, 5 ng/mL LPS, read-out: Mean Percent Inhibition of TNF-alpha using 5 ng/mL LPS): 74 ± 8% | effect of H2O2 in the CAM model ([2]; H2O2 induced angiogenesis, FIG. 1): dose dependent effect

melting point: 225.5 °C (dec.)
Compound: CC1(C)c2ccc(C(=O)O)cc2C(C)(C)N1O.Cl [Compound 15, 1,1,3,3-tetramethylisoindolin-2-hydroxyl-5-carboxylic acid]
% Lipid Peroxidation inhibition (at 1 uM) [1]: 88.0% | Lipid Peroxidation % Inhibition [1]: 94.6% | Percent inhibition of angiogenesis in CAM model at 30 ug [2]: 71.8%

melting point: 191.5 °C (dec.)
Compound: CC1C(O)C(C)C(C)(C)N(O)C1(C)C.Cl (stereo not shown) [Compound 6, 2,2,3,5,6,6-Hexamethyl-piperidine-1,4-diol]
% Lipid Peroxidation inhibition (at 1 uM) [1]: 70.5% | Lipid Peroxidation % Inhibition [1]: 89.0% | Percent inhibition of angiogenesis in CAM model at 30 ug [2]: 40.4% | Mean OD (×10^−3), cancer cell viability ([3]; Dox. 10^−6 M present (+)): 185.25 ×10^−3 | Mean OD (×10^−3), cancer cell viability ([3]; Dox. absent (−)): 367.00 ×10^−3

Compound: CC1(C)CC(=O)CC(C)(C)N1O [Compound 5, 1-Hydroxy-2,2,6,6-tetramethyl-piperidin-4-one]
inhibition at 10 µM ([4]; Homo sapiens, THP-1, read-out: Mean Percent Inhibition of TNF-alpha using 5 ng/mL LPS): 66 ± 7% | IC50 ([4]; Homo sapiens, THP-1, read-out: TNFalpha IC50 (uM)): 22.2 µM | % Lipid Peroxidation inhibition (at 1 uM) [1]: 71.0% | Lipid Peroxidation % Inhibition [1]: 86.3% | Mean OD (×10^−3), cancer cell viability ([3]; Dox. 10^−6 M present (+)): 245.50 ×10^−3 | Mean OD (×10^−3), cancer cell viability ([3]; Dox. absent (−)): 556.50 ×10^−3

Compound: Cc1cc(O)c(O)cc1C(=O)NC1CC(C)(C)N(O)C(C)(C)C1.Cl [Compound 27, 4,5-dihydroxy-2-methyl-N-(1-hydroxy-2,2,6,6-tetramethylpiperidin-4-yl)benzamide]
% Lipid Peroxidation inhibition (at 1 uM) [1]: 53.4% | Percent inhibition of angiogenesis in CAM model at 30 ug [2]: 88.3% | Mean OD (×10^−3), cancer cell viability ([3]; Dox. 10^−6 M present (+)): 403.75 ×10^−3 | Mean OD (×10^−3), cancer cell viability ([3]; Dox. absent (−)): 1038.33 ×10^−3

Compound: CC1(C)CC(OC(=O)C2CC2)CC(C)(C)N1O.Cl [OT-551 HCl]
Mean Percent Inhibition of TNF-alpha using 5 ng/mL LPS ([4]; compound 10 uM, 5 ng/mL LPS): 68 ± 6% | CAM data % Inhibition [2]: 75.2 ± 9.7% and 79.6 ± 7.9% and 74 ± 4% | % Inhibition ± SEM [6]: 74 ± 4% | Branch pts ± SEM [6]: 87 ± 3 | levels in the retina ([7]; after topical administration): good levels | permeability through the cornea ([7]; in vivo): good permeability

Compound: CC1(C)CC(N2CCOCC2)CC(C)(C)N1O.Cl [Compound 3, 4-(2,2,6,6-tetramethylpiperidin-1-hydroxy-4-yl)morpholine]
Lipid Peroxidation % Inhibition [1]: 77.8% | Percent inhibition of angiogenesis in CAM model at 30 ug [2]: 54.7% | Mean OD (×10^−3), cancer cell viability ([3]; Dox. 10^−6 M present (+)): 289.50 ×10^−3 | Mean OD (×10^−3), cancer cell viability ([3]; Dox. absent (−)): 640.25 ×10^−3
